According to ChEMBL document CHEMBL1201862, “PubChem BioAssay data set” (2004):
Calls of active or inactive are those of the source.

What was measured:
[1] = cytotoxicity in HPDE-C7 cells, cell-based, fluorescence, HTS (AID 430); assay type: functional; conditions: Homo sapiens
[2] = cytotoxicity in KRAS-transformed pancreatic duct cells, primary screen, cell-based, fluorescence, HTS (AID 431); assay type: functional; conditions: Homo sapiens;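 also: cell line used: HPDE-C7K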
[3] = system: Streptococcus sp. 'group A'; assay: growth inhibition of control SK(-) GAS strain, dose response, counter-screen for streptokinase expression inhibitor project, luminescence, kanamycin, BacTiterGlo, confirmation (AID 1900); assay type: functional, organism-based
[4] = target: T1, Streptokinase A (Streptococcus pyogenes serotype M1, UniProt P10520); assay: S. pyogenes streptokinase expression inhibitors, potency, dose response, plasminogen activation absorbance, OD405 (AID 1914); assay type: functional, Streptococcus pyogenes M1 GAS;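 also: secreted streptokinase activity via plasminogen activation per viability signal from cell pellet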
T1 sequence (P10520 whole entry): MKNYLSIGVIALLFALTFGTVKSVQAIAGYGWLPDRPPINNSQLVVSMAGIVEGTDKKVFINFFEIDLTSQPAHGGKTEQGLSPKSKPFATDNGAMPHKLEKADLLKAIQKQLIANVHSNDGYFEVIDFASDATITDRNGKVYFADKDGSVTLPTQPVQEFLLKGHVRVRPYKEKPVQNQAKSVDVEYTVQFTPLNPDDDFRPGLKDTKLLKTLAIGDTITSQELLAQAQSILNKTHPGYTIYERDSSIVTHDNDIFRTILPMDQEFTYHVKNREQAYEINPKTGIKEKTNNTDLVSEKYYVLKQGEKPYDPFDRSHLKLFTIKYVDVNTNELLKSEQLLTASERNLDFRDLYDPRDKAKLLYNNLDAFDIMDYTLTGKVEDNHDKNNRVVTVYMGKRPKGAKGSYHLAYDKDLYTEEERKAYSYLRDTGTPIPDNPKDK

[5] = M. tuberculosis H37Rv growth inhibitors, H37Rv strain (AID 1626); assay type: functional
[6] = system: Streptococcus; assay: Group A Streptococcus viability loss, dose response, counter-screen for streptokinase expression inhibitor project, luminescence, BacTiterGlo (AID 1915); assay type: functional, organism-based;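 also: potency for reduction of bacterial viability or growth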
[7] = Luminescence Cell-Based Dose Retest to Confirm Inhibitors of Cancer Stem Cells. [Related pubchem assays (depositor defined):AID2717, AID2721]; assay type: functional; conditions: Homo sapiens
[8] = A549 cell cytotoxicity, dose response, cytotoxicity control, plate reader, cherry-pick, antagonist series (AID 743412); assay type: functional, cell-based
[9] = HepG2 cell cytotoxicity, dose response, cytotoxicity control, plate reader, cherry-pick, antagonist series (AID 743416); assay type: functional, cell-based
[10] = LGR2 antagonists, dose response, cell-based, HEK293, CRE-luciferase reporter, cherry pick, set 2 (AID 743343); assay type: functional;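 also: transfected cells were stimulated with diluted bursicon conditioned medium after compound addition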
[11] = MC4R antagonists, dose response, counter-screen for LGR2 antagonist project, cell-based, plate reader, cherry pick (AID 743444); assay type: functional;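 also: transfected HEK 293 cells stimulated with alpha-MSH peptide; potency of inhibitors of the alpha-MSH evoked signal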
[12] = HEK293 cell cytotoxicity, dose response, cytotoxicity control, plate reader, cherry-picked samples (AID 743446); assay type: functional, cell-based
[13] = target: T2, Neuropeptide Y receptor type 2 (Homo sapiens, UniProt P49146); assay: NPY-Y2 antagonist potency, selectivity check, dose response, counter-screen for NPY-Y1 antagonist project, cell-based (AID 1278); assay type: functional
T2 sequence (P49146 whole entry): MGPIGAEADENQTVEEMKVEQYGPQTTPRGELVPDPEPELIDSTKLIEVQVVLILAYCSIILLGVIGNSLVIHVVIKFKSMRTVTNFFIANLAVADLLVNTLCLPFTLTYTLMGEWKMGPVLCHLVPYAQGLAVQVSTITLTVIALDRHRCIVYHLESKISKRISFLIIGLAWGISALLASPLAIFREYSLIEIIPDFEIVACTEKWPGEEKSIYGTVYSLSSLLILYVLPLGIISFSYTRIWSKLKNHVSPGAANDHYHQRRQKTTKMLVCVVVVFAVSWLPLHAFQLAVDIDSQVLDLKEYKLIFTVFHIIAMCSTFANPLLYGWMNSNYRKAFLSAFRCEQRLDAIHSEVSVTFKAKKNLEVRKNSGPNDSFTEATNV

[14] = target: T3, Neuropeptide Y receptor type 1 (Homo sapiens, UniProt P25929); assay: NPY-Y1 receptor antagonist potency, dose response, cell-based (AID 1277); assay type: functional
T3 sequence (P25929 whole entry): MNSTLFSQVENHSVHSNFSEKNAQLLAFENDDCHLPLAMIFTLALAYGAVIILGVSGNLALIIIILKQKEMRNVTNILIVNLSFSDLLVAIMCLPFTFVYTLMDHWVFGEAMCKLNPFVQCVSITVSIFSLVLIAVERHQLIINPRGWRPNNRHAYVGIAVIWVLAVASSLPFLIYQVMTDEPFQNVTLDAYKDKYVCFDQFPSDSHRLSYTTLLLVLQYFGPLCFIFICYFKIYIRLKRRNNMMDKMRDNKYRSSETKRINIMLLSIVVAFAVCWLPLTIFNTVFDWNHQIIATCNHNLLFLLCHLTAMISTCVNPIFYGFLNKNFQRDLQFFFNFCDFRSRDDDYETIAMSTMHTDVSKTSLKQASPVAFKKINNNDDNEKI

[15] = target: T4, Dual specificity protein phosphatase 6 (Rattus norvegicus, UniProt Q64346); assay: MKP-3 phosphatase inhibitors, primary screen, biochemical, rat enzyme, in vitro (AID 425)
T4 sequence (Q64346 whole entry): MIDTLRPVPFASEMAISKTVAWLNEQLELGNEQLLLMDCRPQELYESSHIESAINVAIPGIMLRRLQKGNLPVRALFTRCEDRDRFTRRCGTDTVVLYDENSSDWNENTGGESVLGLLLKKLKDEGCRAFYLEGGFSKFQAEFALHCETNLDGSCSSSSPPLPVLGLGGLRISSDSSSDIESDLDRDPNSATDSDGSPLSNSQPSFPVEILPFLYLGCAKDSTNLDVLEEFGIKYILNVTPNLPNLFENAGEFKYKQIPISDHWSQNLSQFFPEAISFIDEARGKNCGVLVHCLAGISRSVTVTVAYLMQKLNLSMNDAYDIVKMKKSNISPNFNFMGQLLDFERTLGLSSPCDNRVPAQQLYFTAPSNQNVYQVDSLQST

[16] = NIH-3T3 fibroblast cytotoxicity, dose response, cytotoxicity control, cell-based, fluorescence, Alamar Blue, secondary assay (AID 2327); assay type: functional;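 also: NIH-3T3 mouse fibroblasts cultured with fluconazole at 8 µg/mL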
[17] = C. albicans growth with fluconazole, confirmation, fluorescence, retest (AID 2467); assay type: functional, cell-based
[18] = target: T5, Mannose-6-phosphate isomerase (Homo sapiens, UniProt P34949); assay: inhibitors of human PMI, primary screen, biochemical, fluorescence intensity, coupled assay (AID 1209)
T5 sequence (P34949 whole entry): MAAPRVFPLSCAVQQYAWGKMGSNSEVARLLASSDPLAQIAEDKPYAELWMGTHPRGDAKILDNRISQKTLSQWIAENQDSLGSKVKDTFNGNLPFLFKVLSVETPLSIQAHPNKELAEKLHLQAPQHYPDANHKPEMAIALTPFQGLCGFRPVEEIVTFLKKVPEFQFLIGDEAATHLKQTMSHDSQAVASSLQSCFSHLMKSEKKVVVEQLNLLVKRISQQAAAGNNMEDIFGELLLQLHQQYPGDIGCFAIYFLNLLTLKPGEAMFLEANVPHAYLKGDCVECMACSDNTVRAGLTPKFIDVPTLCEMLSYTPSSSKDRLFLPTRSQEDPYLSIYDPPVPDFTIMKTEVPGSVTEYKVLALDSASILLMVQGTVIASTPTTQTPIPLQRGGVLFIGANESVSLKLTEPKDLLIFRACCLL

[19] = target: T6, Leucine aminopeptidase (Plasmodium falciparum 3D7, UniProt Q8IL11); assay: P. falciparum M17LAP inhibitors, primary screen, biochemical, fluorogenic H-Leu-NHMec substrate, 1536-well (AID 1619); assay type: functional
T6 sequence (Q8IL11 whole entry): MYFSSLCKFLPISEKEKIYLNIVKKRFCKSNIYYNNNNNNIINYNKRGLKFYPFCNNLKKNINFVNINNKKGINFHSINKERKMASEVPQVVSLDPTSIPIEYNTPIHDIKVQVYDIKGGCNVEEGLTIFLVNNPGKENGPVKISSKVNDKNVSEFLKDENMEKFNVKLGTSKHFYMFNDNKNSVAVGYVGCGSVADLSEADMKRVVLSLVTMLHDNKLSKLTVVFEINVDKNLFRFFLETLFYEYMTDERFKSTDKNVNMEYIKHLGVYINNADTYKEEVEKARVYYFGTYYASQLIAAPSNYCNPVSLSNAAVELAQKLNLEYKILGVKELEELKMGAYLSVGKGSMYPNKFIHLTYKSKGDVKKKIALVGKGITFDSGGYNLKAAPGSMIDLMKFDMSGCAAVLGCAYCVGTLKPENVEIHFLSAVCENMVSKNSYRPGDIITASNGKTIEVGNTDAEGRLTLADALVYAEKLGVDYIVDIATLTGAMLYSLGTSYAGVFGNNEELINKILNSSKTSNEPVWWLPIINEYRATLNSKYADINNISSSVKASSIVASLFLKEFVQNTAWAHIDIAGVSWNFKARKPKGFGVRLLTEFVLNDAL

[20] = target: Cytochrome P450 2C19 (Homo sapiens, UniProt P33261); assay: Cytochrome panel assay with activity outcomes. Panel member name: p450-cyp2c19 Compounds with AC50 equal or less than 10 uM are considered active; assay type: functional; conditions: read-out: AC50
Chain of Cytochrome P450 2C19 (P33261 whole entry): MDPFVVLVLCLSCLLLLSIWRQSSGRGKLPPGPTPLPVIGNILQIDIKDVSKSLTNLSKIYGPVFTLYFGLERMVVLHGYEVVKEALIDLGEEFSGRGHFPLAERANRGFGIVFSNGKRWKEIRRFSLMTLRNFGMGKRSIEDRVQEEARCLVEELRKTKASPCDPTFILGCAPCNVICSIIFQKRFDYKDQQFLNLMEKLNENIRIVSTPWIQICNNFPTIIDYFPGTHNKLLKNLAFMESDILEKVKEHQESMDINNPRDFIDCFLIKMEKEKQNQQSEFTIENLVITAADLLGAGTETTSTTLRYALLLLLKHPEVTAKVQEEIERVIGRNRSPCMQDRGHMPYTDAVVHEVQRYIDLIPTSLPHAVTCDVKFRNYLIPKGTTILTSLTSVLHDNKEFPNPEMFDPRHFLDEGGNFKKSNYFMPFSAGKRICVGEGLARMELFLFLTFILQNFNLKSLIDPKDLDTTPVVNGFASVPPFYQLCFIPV

[21] = target: Luciferin 4-monooxygenase (Photinus pyralis, UniProt P08659); assay: Counter Screen for Luciferase-based Assay Positives. [Related pubchem assays: 620, 618, 411 ]
Chain of Luciferin 4-monooxygenase (P08659 whole entry): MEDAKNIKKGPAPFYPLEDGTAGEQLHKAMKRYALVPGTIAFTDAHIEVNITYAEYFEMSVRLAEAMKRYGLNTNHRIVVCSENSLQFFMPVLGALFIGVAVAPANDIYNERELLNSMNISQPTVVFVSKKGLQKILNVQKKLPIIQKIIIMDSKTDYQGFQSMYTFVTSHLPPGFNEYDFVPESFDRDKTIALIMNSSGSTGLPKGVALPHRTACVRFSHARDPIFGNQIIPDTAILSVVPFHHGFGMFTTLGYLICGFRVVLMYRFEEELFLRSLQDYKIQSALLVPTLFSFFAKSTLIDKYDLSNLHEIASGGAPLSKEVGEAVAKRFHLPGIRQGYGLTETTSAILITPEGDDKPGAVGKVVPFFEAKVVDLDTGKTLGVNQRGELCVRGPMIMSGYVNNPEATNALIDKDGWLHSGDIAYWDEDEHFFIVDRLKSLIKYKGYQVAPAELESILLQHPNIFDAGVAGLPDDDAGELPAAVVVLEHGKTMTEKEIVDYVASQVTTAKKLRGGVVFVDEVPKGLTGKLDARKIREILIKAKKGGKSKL

[22] = system: HT-1080; assay: cytotoxicity in HT1080 fibrosarcoma cells, cell-based, fluorescence readout (AID 620); assay type: functional; conditions: Homo sapiens
[23] = target: T5, Mannose-6-phosphate isomerase; assay: human PMI inhibitors, high substrate, primary screen, biochemical, fluorescence intensity, high mannose 6-phosphate (AID 1220)
[24] = target: T7, Cytochrome P450 1A2 (Homo sapiens, UniProt P05177);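 also: PubChem cytochrome P450 panel assay, CYP1A2 panel member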
T7 sequence (P05177 whole entry): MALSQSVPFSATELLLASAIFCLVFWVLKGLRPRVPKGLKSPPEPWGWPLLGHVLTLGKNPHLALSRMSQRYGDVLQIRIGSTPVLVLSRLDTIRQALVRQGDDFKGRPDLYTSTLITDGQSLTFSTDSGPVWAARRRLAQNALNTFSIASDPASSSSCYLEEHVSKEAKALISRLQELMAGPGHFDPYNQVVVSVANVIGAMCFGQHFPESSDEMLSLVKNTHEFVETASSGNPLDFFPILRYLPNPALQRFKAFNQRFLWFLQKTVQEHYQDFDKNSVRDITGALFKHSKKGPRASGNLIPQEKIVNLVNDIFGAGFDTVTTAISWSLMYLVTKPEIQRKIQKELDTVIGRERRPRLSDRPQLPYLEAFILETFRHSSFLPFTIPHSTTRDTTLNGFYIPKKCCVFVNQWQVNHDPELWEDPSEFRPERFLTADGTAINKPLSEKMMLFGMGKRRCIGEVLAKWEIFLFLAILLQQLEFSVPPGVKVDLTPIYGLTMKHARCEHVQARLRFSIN

O=C1CC(c2ccc3c(c2)OCO3)c2cc3c(cc2N1)OCCO3 (centres undefined)
EC50 [1]: > 20 µM (not active) | EC50 [2]: > 20 µM (not active)

c1ccc(-c2cc3c(NCC4COc5ccccc5O4)ncnc3s2)cc1 (centres undefined)
EC50 [3]: 3 µM (active) | EC50 [4]: 3.29 µM (active) | IC50 [5]: > 100 µM (active) | EC50 [6]: 21.7 µM (active) | AC50 [7]: 3.96 µM (active)

O=S(=O)(CCSc1nc2ccccc2o1)c1nc2ccccc2s1
EC50 [1]: 4.88 µM (active) | EC50 [2]: 5.33 µM (active) | AC50 [8]: 44.4 µM (active) | AC50 [9]: 5.74 µM (active) | AC50 [10]: 2.43 µM (active) | AC50 [11]: 1.8 µM (active) | AC50 [12]: 6.8 µM (active)

COc1ccc(N2CCN(C(c3cccc(OC)c3OC)c3nnnn3C3CCCC3)CC2)cc1 (centres undefined)
IC50 [13]: > 35 µM (not active) | IC50 [14]: > 35 µM (not active)

O=C(CN(Cc1ccco1)C(=O)CNS(=O)(=O)c1ccc(F)cc1)NCCc1ccccc1
IC50 [15]: > 100 µM (not active)

N=C1/C(=C\c2ccc(SCc3ccccc3)o2)C(=O)N=C2SC=NN12
EC50 [16]: > 150 µM (inactive) | EC50 [17]: 5.72 µM (active) | IC50 [18]: > 50 µM (not active)

COC(=O)c1ccc(NC(=O)C2CCCCC2C(=O)O)cc1 (centres undefined)
IC50 [19]: 13.5 µM (active) | AC50 [20]: 0.0398 µM (inconclusive)

Cc1sc(NC(=O)C2C3C=CC(C3)C2C(=O)O)c(C(N)=O)c1-c1ccc(C(C)C)cc1 (centres undefined)
IC50 [19]: 4.99 µM (active) | EC50 [3]: 32.1 µM (active) | EC50 [4]: 32.2 µM (active) | EC50 [6]: > 150 µM (not active)

COC(=O)c1ccc(-c2nc(-c3cccs3)no2)cc1
EC50 [21]: 0.76 µM (active) | EC50 [22]: > 50 µM (not active)

COc1ccc2c(c1)C(C)=CC(C)(C)N2C(=O)Nc1ccccc1
IC50 [18]: > 50 µM (not active) | IC50 [23]: > 50 µM (not active)

O=C(c1cc(-c2cccc(O)c2)on1)N1CCCCC1
EC50 [21]: 0.64 µM (active) | EC50 [22]: > 50 µM (not active)

Cc1cc2cc(C)c(NCCNC(=O)c3cccc(F)c3)nc2cc1C
IC50 [13]: 4.44 µM (active) | IC50 [14]: 3.39 µM (active)

Cc1cc(=O)oc2ccc(OC(=O)CC(C)C)cc12
IC50 [5]: > 100 µM (active)

COc1ccc(NC2(C#N)CCCCC2)cc1
IC50 [5]: > 100 µM (active)

COc1ccc([N+](=O)[O-])cc1N(CC(O)CN(CC(C)C)CC(C)C)S(=O)(=O)c1ccccc1 (centres undefined)
IC50 [13]: > 35 µM (not active) | IC50 [14]: > 35 µM (not active) | AC50 [24]: 11.2 µM (inconclusive)
